Some results are limits rather than exact numbers.

In series [1] the target is T1, recombinant MA (Human immunodeficiency virus type 1 group M subtype B, UniProt P04591).
T1 construct: 0.28 nanomoles of recombinant MA or RT [p66/p51 ] dimer
In words: Binding of [14C]-CNI-H0294 to recombinant MA in solution (immunoprecipitation). Details: species or system HIV-1. As to the method:
Twenty nmol of [^14C]-CNI-HO294 were mixed with 0.28 nmol of recombinant MA or RT (a p51/p66 heterodimer) in 40 μl of binding buffer. Samples were incubated for 2 h at 37° C. in the presence or absence of 200 nmol of unlabeled CNI-H0294. MA and RT proteins were immunoprecipitated using protein G agarose and sheep polyclonal anti-MA (αMA) or rabbit anti-RT (αRT) sera, respectively. Pre-immune sera (PI) was used as control. Bound material was eluted from protein G using 0.1 M glycine buffer [pH 2.8] and the radioactivity in the eluate was quantified in a scintillation counter.
0.28 nanomoles of recombinant MA or RT [p66/p51 ] dimer were mixed with 20 nmol of [^14C] CNI-HO294 (specific activity 5×10^4 cpm/nmol) and incubated 2 hr at room temperature in 40 μl of binding buffer (PBS supplemented with 1% BSA, 0.1% Tween 20, 1 μg/ml leupeptin, 1 μg/ml aprotinin, 1 mM PMSF). Sheep anti-MA or rabbit anti-RT sera (both obtained from NIH AIDS Research and Reference Reagent Program) or pre-immune control sera were then added (at 1:100 dilution) and incubation continued for another 1 hr at room temperature. Immune complexes were precipitated with protein G-agarose, washed, and then eluted with 0.1 M glycine, pH 2.8. Radioactivity of the eluate was measured in a scintillation counter.

The target in series [2] is T2, HIV-1 pre-integration complex (MA / HIV-1 cDNA) (Human immunodeficiency virus type 1 group M subtype B, UniProt P05890+P05959).
T2 construct: MA is made from the Gag precursor and RT is made from the Gag-Pol precursor; endogenous in cells; host or cells: cytoplasmic extract of H9 cells infected with HIV-1RF
In words: Association of MA with HIV-1 cDNA (anti-MA immunoprecipitation of viral DNA). The format is biochemical. As to conditions: 10 μM (FIG. 13A). As to the method:
Cytoplasmic extracts prepared from H9 cells infected with HIV-1RF were treated with 10 μM CNI-H0294 (lanes 2, 3, and 4) or left untreated (lane 1). Samples were divided into two aliquots. One aliquot was mixed with GST-karyopherin α immobilized on Sepharose beads and the HIV-1 DNA that bound was quantified by PCR. The second aliquot was immunoprecipitated (IP) with anti-MA serum (αMA, lane 3) or with pre-immune serum (NSS, lane 4) as control.
To test this hypothesis, cytoplasmic lysates of HIV-1-infected H9 cells were treated with CNI-H0294 and mixed with immobilized karyopherin α or subjected to immunoprecipitation with antibodies that bind MA.

In series [3] the test system is monocyte and T lymphocyte cultures. The experiment in a line: Cytotoxicity in monocyte and T lymphocyte cultures in vitro. Type of series: cell-based.
The test system of series [4] is HIV-1ADA. In words: HIV-1ADA production in mitogen-stimulated peripheral blood leukocytes (FIG. 3). Type of series: cell-based. As to the method:
FIG. 3. The effect of various concentrations of Compound No. 2 on RT activity in the supernatant of HIV-1-infected mitogen-stimulated peripheral blood leukocytes at infected at 10 and 1.0 ng p24/[…], FIGS. 3A and 3B, respectively.
PBMCs were purified by Ficoll-Hypaque centrifugation and activated by 10 μg/ml PHA-P (Sigma) and 20 U/ml recombinant human IL-2 (rhIL-2) in RPMI 1640 supplemented with 10% FBS (HyClone). After 24 h incubation, cells were washed and inoculated with HIV-1ADA in RPMI 1640 supplemented with 10% FBS. After a 2 h adsorption, free virus was washed away and cells were cultured in RPMI 1640 supplemented with 10% FBS and 20 U/ml rhIL-2.
For the reverse transcriptase (RT) assay, 10 μl of culture supernatant was added to 40 μl of reaction mixture (final composition was 50 mM Tris-HCl, pH 7.8; 20 MM KCl; 5 MM MgCl2; 1 mM DTT; 0.1% Triton X-100; 0.2 OD/ml polyA; 0.2 OD/ml oligo(dT)12-18; and 40 μCi/ml ^3H-dTTP (76 Ci/mmol, DuPont) and incubated 2 hr at 37° C. 5 μl of the reaction mixture was then spotted onto the DE 81 (Whatman) paper. Paper was air dried and washed 5 times with 5% Na2HPO4, followed by rinsing with distilled water. After air drying, paper was put on a Flexi Filter plate (Packard), covered with scintillation fluid and counted in a Top Count Microplate Counter (Packard). Results are expressed as counts per minute in 1 ml of supernatant (cpm/ml).

With `CC(=O)c1cc(Nc2cc(C)[n+](C)c(N)n2)cc(C(C)=O)c1` [CNI-0294, 2-Amino-4-(3,5-diacetylphenyl)amino-1,6-dimethylpyrimidinium chloride], the “binding to recombinant MA” value in series [1] is recorded as “No binding was observed”. Also, the “immunoprecipitation of viral DNA with anti-MA serum” value in series [2] is reported as “did not prevent immunoprecipitation of viral DNA with anti-MA serum”. For the same compound, the 50% toxic dose in series [3] is greater than 1 mM.

In the case of `CC(=O)c1cc(Nc2cc(C)[n+](C)c(N)n2)cc(C(C)=O)c1.[I-]` [Compound No. 2, 2-amino-4-(3,5-diacetylphenyl)amino-1,6-dimethylpyrimidinium iodide], the “reduction in viral output” value in series [4] (1 and 10 μM, lower MOI, 1 ng p24/10^6 cells) was roughly 2 fold. Further, in series [4] (infected at the multiplicity of infection used to infect monocytes), the “anti-viral effect in cultures of replicating cells” value was “No anti-viral effect was detected”. Further, the “effect on viral production” value in series [4] (up to 10 μM, higher MOI, 10 ng p24/10^6 cells) is “only a marginal effect”.

Values taken from patent publication US6649797B2, “Compounds and methods of use to treat infectious diseases” (The Picower Institute for Medical Research, priority 1996, dated 2003).
